# Entries after “also recorded” stand apart in the source; their conditions may differ. Where a name gives a salt, the structure may show the parent alone.
# Tested on: Grover's disease
# Experiment: Treatment of patients with Grover's disease (clinical study)
# Assay type: in vivo, human
# Details: three patients with Grover's disease; diet (no seafood) and chelation with Succimer 200-300 mg TID x 1-2 months
# Text: Fourteen patients with Grover's disease (ages 55-85) were randomly selected from a private dermatology practice. All patients were diagnosed using the following criteria: (1) complaints of pruritic eruption of the chest, abdomen or back; (2) physical exam showing discreet small (<2 mm) scattered erythematous scaly or crusted papules of chest, abdomen or back; (3) biopsy showing a superficial perivascular infiltrate of lymphocytes, suprabasal clefts and acantholytic cells. All patients gave verbal consent for a shave biopsy of a skin lesion and a blood test for mercury. Two were women and twelve were men.
# Of the fourteen patients with Grover's disease, all had measurable blood mercury (mean—10 u/Liter). All patients complained of pruritus and were aware of skin lesions. All fourteen patients were treated with topical steroids without improvement.
smiles,measurement,value
"O=C(O)[C@@H](S)[C@@H](S)C(=O)O [Succimer, 2,3-dimercaptosuccinic acid or salt thereof]",Effect of treatment on the cutaneous eruption of Grover's disease,clearing of the eruption; also recorded: beneficial effect
